ChEMBL document CHEMBL1201862, “PubChem BioAssay data set” (2004)
Where “and” joins values, the source holds several entries; their conditions need not be identical. Equal entries are not always repeated. Calls of active or inactive are those of the source.

What was measured:
[1] = target: Estrogen receptor (Homo sapiens, UniProt P03372);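 further: potency for inhibiting coactivator peptide recruitment to the receptor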
[2] = target: T1, Bcl-2-related protein A1 (Mus musculus, UniProt Q07440); assay: small-molecule antagonists of Bfl-1/BH3 interaction – biochemical, TR-FRET, mouse Bfl-1, confirmation (AID 621);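 further: TR-FRET binding of GST-Bfl-1 to FITC-labelled Bid peptide via terbium antibody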
T1 sequence (Q07440 whole entry): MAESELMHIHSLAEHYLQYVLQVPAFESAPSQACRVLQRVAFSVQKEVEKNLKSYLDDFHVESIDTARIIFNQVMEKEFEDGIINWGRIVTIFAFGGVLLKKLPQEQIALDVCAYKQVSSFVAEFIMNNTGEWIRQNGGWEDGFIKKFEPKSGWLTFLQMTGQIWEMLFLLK

[3] = target: T1, Bcl-2-related protein A1; assay: Bfl-1 binding inhibitors, SAR follow-up, biochemical, fluorescence polarization (AID 1070)
[4] = target: Glyceraldehyde-3-phosphate dehydrogenase (Homo sapiens, UniProt P04406)
Glyceraldehyde-3-phosphate dehydrogenase, sequence (P04406 whole entry): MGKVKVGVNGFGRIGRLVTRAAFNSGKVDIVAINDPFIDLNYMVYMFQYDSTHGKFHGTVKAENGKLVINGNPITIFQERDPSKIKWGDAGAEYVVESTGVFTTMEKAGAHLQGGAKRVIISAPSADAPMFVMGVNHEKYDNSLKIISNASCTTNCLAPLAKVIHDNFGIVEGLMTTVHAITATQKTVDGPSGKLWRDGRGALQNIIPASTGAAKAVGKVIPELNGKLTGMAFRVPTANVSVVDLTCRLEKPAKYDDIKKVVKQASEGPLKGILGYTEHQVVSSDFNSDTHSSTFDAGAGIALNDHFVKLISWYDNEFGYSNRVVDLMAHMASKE

[5] = Trypanosoma cruzi growth suppression in host cells – NIH3T3 host cells, beta-gal luminescence, confirmation (AID 2044); format: functional, cell-based;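 further: intracellular parasites grown in NIH/3T3 mouse fibroblasts as host cells; luminescent beta-galactosidase reporter signal from transgenic T. cruzi replicating inside host cells; inhibitors lower the luminescence signal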
[6] = target: T2, Microphthalmia-associated transcription factor (Homo sapiens, UniProt O75030); assay: reducers of TRPM1 reporter luminescence, concentration series – cell-based, SK-MEL-5, cherry-picked, set 3, MITF inhibitor project, dose response (AID 493073); format: functional;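 further: SK-MEL-5 melanoma cells with luciferase driven by the MITF target TRPM1 promoter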
T2 sequence (O75030 whole entry): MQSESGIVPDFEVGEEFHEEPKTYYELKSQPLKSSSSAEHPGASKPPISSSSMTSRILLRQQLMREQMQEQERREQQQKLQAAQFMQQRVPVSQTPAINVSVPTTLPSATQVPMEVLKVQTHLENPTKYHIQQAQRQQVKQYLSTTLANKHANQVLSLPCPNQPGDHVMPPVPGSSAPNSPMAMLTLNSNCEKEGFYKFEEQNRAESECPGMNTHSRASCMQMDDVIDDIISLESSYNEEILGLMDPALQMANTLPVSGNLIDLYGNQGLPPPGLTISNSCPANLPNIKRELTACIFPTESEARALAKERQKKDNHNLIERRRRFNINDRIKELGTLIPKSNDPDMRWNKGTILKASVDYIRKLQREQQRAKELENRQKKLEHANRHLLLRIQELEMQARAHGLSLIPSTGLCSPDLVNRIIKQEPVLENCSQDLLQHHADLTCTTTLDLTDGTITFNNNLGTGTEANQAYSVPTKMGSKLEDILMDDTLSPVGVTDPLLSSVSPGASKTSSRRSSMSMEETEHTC

[7] = cells
[8] = system: A-375; assay: MITF: Counter assay: A375 proliferation Measured in Cell-Based System Using Plate Reader - 2084-03_Inhibitor_Dose_DryPowder_Activity. [Related pubchem assays (depositor defined):AID488944]; format: functional; settings: Homo sapiens
[9] = fluconazole-exposed Candida albicans growth modulators – fluorescence, retest, confirmation (AID 2467); format: functional, cell-based
[10] = system: INS1; assay: INS-1E survival protection against cytokine death – cell-based, luminescence, retest, dose response (AID 449756); format: functional;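 further: cell death triggered by IL-1 beta plus TNF-alpha plus IFN-gamma mixture; protective hits raise ATP signal compared with cytokine alone wells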
[11] = NIH3T3 cell viability loss – ATP luminescence, mouse fibroblasts, counter-screen, dose response (AID 2010); format: functional, cell-based;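 further: cells exposed to compound for about 90 hours before reading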
[12] = target: T3, Ubiquitin-conjugating enzyme E2 N (Homo sapiens, UniProt P61088); format: functional;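 further: Dose-response confirmation in a TR-FRET assay detecting UBC13-driven polyubiquitin chain formation, inhibition measured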
T3 sequence (P61088 whole entry): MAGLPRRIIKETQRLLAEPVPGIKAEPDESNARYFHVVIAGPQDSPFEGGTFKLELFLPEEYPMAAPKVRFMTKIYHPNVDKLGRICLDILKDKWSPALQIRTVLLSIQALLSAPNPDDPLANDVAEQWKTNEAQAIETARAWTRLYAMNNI

[13] = system: BJ; assay: BJ-TERT fibroblast viability loss – cell-based, RAS-independent, luminescence, dose response (AID 1933); format: functional; settings: Homo sapiens
[14] = target: Melanocortin receptor 4 (Homo sapiens, UniProt P32245); format: functional, cell-based;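 further: Cell-based assay with luminescence read-out, confirmatory dose-response testing for agonist activity of biased ligands at MC4R; human U2OS cells with tagged receptor and beta-arrestin; potency of agonists that increase receptor coupling to beta-arrestin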
Melanocortin receptor 4, sequence (P32245 whole entry): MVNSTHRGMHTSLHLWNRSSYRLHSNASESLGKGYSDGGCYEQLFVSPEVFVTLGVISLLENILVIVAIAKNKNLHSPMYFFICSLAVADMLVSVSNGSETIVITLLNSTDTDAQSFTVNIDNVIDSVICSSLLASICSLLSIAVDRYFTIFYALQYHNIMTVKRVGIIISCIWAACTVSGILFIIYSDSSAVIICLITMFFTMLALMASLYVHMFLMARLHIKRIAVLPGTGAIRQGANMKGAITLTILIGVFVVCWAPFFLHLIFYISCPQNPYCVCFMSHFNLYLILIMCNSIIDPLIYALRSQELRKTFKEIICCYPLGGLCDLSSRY

[15] = target: Dual specificity protein phosphatase 3 (Homo sapiens, UniProt P51452); assay: VHR phosphatase inhibition, dose response, selectivity assay for STEP inhibitor project, biochemical (AID 602374); format: functional; settings: read-out: IC50_Mean
Dual specificity protein phosphatase 3, sequence (P51452 whole entry): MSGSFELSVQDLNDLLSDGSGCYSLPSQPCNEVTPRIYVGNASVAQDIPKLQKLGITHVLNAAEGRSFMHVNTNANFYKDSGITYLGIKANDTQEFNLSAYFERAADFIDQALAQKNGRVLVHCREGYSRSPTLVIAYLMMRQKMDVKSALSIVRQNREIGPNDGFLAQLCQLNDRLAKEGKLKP

[16] = system: BJ; assay: BJ-TERT-LT-ST fibroblast viability loss – cell-based, RAS-independent, luminescence, dose response (AID 1935); format: functional; settings: Homo sapiens;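 further: BJ fibroblasts immortalized with TERT plus LT and ST oncogenes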
[17] = DRD fibroblast viability loss – cell-based, non-viral oncogenic, luminescence, dose response (AID 1934); format: functional; settings: Homo sapiens
[18] = target: Peroxisome proliferator-activated receptor gamma/Nuclear receptor coactivator 3 (Homo sapiens, UniProt P37231); format: functional;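 further: agonist potency for raising coactivator recruitment to the receptor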
[19] = target: Protein-tyrosine kinase 2-beta (Homo sapiens, UniProt Q14289);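 further: potency of inhibitors of PYK2 kinase phosphorylation of poly-GT substrate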
Protein-tyrosine kinase 2-beta, sequence (Q14289 whole entry): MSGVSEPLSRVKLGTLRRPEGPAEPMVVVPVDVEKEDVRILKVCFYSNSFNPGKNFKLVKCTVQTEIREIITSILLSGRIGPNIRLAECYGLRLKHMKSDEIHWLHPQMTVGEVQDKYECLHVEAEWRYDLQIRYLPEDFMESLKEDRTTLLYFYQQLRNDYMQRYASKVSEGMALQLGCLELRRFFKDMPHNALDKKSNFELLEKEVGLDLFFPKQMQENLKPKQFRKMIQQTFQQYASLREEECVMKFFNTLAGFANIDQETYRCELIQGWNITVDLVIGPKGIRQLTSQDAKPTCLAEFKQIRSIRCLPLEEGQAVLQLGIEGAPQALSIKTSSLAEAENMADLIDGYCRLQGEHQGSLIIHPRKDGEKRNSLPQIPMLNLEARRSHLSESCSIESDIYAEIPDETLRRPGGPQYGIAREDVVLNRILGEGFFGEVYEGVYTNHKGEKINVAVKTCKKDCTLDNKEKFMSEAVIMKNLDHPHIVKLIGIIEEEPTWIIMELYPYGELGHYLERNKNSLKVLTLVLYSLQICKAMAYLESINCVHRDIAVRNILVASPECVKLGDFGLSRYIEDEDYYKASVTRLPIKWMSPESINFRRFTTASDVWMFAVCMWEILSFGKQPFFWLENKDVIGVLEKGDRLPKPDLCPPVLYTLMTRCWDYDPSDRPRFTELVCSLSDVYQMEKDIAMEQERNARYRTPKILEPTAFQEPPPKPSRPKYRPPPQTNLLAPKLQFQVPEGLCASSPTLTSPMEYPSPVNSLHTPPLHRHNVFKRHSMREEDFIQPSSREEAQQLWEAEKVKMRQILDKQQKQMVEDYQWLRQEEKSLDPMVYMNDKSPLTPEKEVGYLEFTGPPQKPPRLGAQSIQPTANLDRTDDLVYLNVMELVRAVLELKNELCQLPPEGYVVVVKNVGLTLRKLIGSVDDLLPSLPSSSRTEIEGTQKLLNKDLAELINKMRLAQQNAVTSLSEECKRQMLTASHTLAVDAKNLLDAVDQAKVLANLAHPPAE

[20] = target: Peroxisome proliferator-activated receptor gamma/Nuclear receptor coactivator 2 (Homo sapiens, UniProt P37231); format: functional;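 further: agonist potency for raising coactivator recruitment to the receptor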
[21] = target: T4, Tyrosine-protein phosphatase non-receptor type 11 (Homo sapiens, UniProt Q06124); assay: PTPN11 enzyme inhibitors – biochemical, selectivity assay for STEP inhibitor project, dose response (AID 602367); format: functional; settings: read-out: IC50_Mean
T4 sequence (Q06124 whole entry): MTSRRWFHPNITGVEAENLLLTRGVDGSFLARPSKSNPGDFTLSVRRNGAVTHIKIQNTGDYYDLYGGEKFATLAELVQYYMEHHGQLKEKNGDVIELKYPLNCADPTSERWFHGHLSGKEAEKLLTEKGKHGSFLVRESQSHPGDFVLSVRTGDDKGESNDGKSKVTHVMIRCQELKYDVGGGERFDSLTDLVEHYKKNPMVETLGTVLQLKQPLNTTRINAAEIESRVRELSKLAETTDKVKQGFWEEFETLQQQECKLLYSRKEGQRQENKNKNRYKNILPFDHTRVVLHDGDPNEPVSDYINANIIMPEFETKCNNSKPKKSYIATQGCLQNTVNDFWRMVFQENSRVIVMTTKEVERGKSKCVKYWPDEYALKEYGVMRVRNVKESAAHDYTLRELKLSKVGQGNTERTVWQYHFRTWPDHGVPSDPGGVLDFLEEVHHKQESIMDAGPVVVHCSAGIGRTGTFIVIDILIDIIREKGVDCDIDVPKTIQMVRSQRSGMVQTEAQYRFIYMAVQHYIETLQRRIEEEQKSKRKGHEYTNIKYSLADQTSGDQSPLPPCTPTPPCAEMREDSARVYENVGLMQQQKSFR

[22] = target: Peroxisome proliferator-activated receptor gamma/Nuclear receptor coactivator 1 (Homo sapiens, UniProt P37231); format: functional;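 further: agonist potency as compounds enhance coactivator SRC-1 recruitment to PPARgamma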
[23] = system: BJ; assay: cells; format: functional, cell-based; settings: Homo sapiens
[24] = target: T5, Tyrosine-protein phosphatase non-receptor type 5 (Homo sapiens, UniProt P54829); assay: PTPN5 enzyme inhibition – biochemical, fluorescence intensity, uHTS hits, confirmation (AID 602372); format: functional; settings: read-out: IC50_Mean
T5 sequence (P54829 whole entry): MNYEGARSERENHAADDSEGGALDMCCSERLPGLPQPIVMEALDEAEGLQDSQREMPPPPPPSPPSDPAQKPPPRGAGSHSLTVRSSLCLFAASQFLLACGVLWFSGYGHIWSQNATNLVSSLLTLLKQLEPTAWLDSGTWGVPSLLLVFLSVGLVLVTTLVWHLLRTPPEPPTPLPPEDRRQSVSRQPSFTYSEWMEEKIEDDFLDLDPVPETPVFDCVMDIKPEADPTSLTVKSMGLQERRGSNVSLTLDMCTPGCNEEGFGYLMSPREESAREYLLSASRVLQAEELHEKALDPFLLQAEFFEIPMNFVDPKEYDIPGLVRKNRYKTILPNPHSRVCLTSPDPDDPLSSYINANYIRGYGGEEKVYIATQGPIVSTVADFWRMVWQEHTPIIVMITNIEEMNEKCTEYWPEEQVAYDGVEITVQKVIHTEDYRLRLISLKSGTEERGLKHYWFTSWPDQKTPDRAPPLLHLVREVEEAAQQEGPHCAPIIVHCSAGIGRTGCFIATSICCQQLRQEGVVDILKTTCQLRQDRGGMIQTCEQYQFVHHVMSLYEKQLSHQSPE

[25] = cells; format: functional, cell-based; settings: HEK-CNG
[26] = target: T6, Carboxy-terminal domain RNA polymerase II polypeptide A small phosphatase 1 (Homo sapiens, UniProt Q9GZU7); assay: CTDSP1 inhibitors, concentration-response, biochemical, absorbance readout, ultra-high-throughput screen actives (AID 540297); format: functional
T6 sequence (Q9GZU7 whole entry): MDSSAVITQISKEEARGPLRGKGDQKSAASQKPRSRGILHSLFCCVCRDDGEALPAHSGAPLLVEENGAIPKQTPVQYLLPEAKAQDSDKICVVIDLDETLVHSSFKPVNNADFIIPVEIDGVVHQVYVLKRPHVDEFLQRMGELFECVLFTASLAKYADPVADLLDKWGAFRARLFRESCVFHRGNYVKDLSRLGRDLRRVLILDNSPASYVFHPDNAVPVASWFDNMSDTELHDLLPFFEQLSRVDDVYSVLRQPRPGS

[27] = target: T7, Galanin receptor type 3 (Homo sapiens, UniProt O60755); assay: Fluorescence-based cell-based primary high throughput dose response assay to identify antagonists of the Galanin Receptor 3 (GalR3).; format: functional
T7 sequence (O60755 whole entry): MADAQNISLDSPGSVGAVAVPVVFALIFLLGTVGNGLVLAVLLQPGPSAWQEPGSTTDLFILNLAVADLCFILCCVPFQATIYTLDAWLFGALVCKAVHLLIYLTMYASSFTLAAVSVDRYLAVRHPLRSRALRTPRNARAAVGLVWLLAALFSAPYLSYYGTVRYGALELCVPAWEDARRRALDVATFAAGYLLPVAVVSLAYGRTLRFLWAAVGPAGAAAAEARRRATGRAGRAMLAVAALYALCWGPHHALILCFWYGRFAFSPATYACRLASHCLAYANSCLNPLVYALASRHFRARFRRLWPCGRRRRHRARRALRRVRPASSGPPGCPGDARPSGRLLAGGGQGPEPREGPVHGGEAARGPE

[28] = target: T8, Estrogen receptor beta (Homo sapiens, UniProt Q92731);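 further: recombinant ER-beta bound to coactivator SRC1 peptide in presence of estradiol agonist; inhibitors block coactivator peptide binding and lower the FRET signal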
T8 sequence (Q92731 whole entry): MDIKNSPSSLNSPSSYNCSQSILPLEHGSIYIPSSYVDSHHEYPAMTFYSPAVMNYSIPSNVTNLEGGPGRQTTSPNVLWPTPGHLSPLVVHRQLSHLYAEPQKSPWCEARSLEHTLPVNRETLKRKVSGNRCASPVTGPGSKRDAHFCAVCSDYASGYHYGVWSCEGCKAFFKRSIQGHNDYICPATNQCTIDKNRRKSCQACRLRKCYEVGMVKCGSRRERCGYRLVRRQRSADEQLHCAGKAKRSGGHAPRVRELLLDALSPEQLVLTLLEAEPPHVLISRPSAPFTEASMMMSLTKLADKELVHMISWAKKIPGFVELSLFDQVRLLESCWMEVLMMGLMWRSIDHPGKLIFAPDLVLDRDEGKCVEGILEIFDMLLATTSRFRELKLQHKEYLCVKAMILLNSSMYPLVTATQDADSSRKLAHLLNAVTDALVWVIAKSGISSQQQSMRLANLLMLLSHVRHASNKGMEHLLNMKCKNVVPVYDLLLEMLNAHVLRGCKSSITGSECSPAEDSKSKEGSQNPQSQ

[29] = target: T8, Estrogen receptor beta; assay: blockers of SRC-3 recruitment to ERβ – biochemical, ELISA, streptavidin-HRP readout, orthogonal assay, confirmation (AID 1060)
[30] = target: Lytic switch protein BZLF1 (Epstein-Barr virus (strain B95-8) (HHV-4) (Human herpesvirus 4), UniProt P03206); assay: inhibition of BZLF1 ZTA DNA binding – biochemical, fluorescence polarization, Epstein-Barr virus, 1536-well, counter-screen for EBNA-1 inhibitor project, dose response (AID 2377); parameters: species or system human gammaherpesvirus 4;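 further: fluorescence polarization of Cy5-labelled ZRE DNA probe bound by purified Zta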
Lytic switch protein BZLF1, sequence (P03206 whole entry): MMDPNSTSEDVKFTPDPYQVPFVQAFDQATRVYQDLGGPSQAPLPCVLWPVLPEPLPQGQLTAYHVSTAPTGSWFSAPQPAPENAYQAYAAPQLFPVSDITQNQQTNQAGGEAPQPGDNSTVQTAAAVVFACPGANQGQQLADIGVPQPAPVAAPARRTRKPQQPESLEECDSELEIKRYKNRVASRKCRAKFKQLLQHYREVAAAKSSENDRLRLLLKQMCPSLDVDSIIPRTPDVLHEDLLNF

[31] = target: Epstein-Barr nuclear antigen 1 (Epstein-Barr virus (strain B95-8) (HHV-4) (Human herpesvirus 4), UniProt P03211); assay: inhibition of EBV nuclear antigen 1 DNA binding – biochemical, fluorescence polarization, 1536-well, dose response (AID 2381); parameters: species or system human gammaherpesvirus 4;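 further: fluorescence polarization of a Cy5 DNA probe bound by EBNA-1 protein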
Epstein-Barr nuclear antigen 1, sequence (P03211 whole entry): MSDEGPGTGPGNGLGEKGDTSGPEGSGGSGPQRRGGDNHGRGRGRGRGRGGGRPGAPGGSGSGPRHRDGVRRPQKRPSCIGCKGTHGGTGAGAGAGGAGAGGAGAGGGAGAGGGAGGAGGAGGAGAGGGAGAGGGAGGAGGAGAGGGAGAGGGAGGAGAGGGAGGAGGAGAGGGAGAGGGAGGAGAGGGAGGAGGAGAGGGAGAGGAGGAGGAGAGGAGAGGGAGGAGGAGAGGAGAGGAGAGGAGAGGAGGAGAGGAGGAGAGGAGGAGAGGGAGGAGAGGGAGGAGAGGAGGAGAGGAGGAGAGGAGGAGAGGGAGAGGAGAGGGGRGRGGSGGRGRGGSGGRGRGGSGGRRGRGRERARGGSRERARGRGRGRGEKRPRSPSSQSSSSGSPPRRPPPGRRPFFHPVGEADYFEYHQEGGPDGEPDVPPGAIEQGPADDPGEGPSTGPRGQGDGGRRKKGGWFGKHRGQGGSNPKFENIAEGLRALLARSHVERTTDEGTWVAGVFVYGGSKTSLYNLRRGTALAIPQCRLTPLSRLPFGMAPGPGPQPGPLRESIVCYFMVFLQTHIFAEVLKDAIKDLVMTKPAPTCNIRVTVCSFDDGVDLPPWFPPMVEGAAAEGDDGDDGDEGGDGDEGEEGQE

Estrogen receptor, sequence (P03372 whole entry): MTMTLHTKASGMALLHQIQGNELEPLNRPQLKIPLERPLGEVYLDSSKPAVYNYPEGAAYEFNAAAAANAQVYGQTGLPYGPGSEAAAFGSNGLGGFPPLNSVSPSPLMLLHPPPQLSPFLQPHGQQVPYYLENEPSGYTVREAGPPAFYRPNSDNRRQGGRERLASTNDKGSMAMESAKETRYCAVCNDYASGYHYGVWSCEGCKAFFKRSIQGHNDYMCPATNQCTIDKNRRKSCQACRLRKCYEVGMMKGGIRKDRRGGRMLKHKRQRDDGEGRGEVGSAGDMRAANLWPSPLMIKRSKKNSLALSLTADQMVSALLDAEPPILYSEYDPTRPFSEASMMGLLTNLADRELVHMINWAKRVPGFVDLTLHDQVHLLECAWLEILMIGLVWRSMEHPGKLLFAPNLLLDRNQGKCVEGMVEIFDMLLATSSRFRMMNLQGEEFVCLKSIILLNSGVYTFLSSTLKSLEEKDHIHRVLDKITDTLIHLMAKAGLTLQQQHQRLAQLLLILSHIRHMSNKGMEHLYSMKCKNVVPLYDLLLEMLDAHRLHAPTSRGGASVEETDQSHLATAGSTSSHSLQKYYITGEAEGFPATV

NC(=O)c1ccc(F)cc1
IC50 [1]: > 50 µM (not active)

CN1CCN(C2CC(=O)N(c3ccc(Cl)c(Cl)c3)C2=O)CC1 (stereo not given)
IC50 [2]: > 100 µM (not active)
IC50 [3]: > 100 µM (not active)
IC50 [4]: > 100 µM (not active)

CC1CCC(C(C)C)C(OC(=O)Cn2c(-c3ccc(Br)cc3)[n+](C)c3ccccc32)C1 (stereo not given)
EC50 [5]: < 0.1 µM (active)
AC50 [6]: 7.12 µM (active)
EC50 [7]: 0.409 µM (active)
AC50 [8]: 36.8 µM (active)
EC50 [9]: 227 nM (active) and 290 nM (active)
AC50 ([10]; Rattus norvegicus, INS1): 3.63 µM (active)
AC50 ([10]; ins1): 2.8 µM (active)
EC50 [11]: > 60 µM (not active)
IC50 [12]: > 20 µM (inactive)

COc1ccc(C2C=C(c3ccc(Cl)cc3)Nc3nc(NC(C)=O)nn32)cc1 (stereo not given)
IC50 [1]: 21.9 µM (active)

COc1ccc(-n2nc(C(=O)NCC(=O)Nc3ccccn3)c3ccccc3c2=O)cc1Cl
EC50 [13]: 31.5 µM (active)
EC50 [14]: > 89.2 µM (inactive)
IC50 [15]: 3.14 µM (active)
EC50 [16]: > 150 µM (not active)
EC50 [17]: 28.5 µM (active)
EC50 [18]: 37.7 µM (not active)
IC50 [19]: > 69.5 µM (not active)
EC50 [20]: 19.2 µM (not active)
IC50 [21]: 1.98 µM (active)
EC50 [22]: 25.8 µM (not active)
EC50 [23]: 21.6 µM (active)
IC50 [24]: 42.3 µM (inactive)

O=c1cc(CSc2nnc(-c3cccs3)n2Cc2ccccc2)nc2sc3ccccc3n12
EC50 [25]: > 29.9 µM (inactive)
IC50 [26]: 5.42 µM (active)
IC50 [27]: 0.482 µM (active)
IC50 [28]: < 1.56 µM (active)
IC50 [29]: 19.3 µM (not active)

c1cc2ccc3ccc(CN4CCOCC4)c4ccc(c1)c2c34
IC50 [19]: > 69.5 µM (not active)

COc1ncccc1-c1nnn(-c2ccccc2)n1
IC50 [2]: > 100 µM (not active)
IC50 [3]: > 100 µM (not active)

Cc1ccc(S(=O)(=O)Cc2ccc(C(=O)N3CCN(Cc4ccccc4)CC3)o2)cc1
IC50 [28]: 8.83 µM (active)
IC50 [29]: 19.2 µM (not active)

O=C(Cn1nnc(-c2ccccc2NC(=O)c2ccccc2)n1)Nc1ccc2c(c1)OCCO2
IC50 [30]: > 111 µM (not active)
IC50 [31]: 16.4 µM (not active)

CCOc1ccc(NC(=O)C(=O)N/N=C\c2ccc(CNS(=O)(=O)c3ccccc3)o2)cc1
IC50 [30]: > 111 µM (not active)
IC50 [31]: 7.23 µM (active)
